In PubChem BioAssay (NCI):
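At the GI50, growth is halved. TGI: concentration producing complete growth inhibition.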

Legend:
Test in all cases: NCI tumour cell line growth inhibition, 384-well format
[1] = test system: RXF 393 renal
[2] = test system: HOP-92 NSCLC
[3] = test system: ACHN renal
[4] = test system: M14 melanoma
[5] = test system: OVCAR-4 ovarian
[6] = test system: HL-60(TB) leukemia
[7] = test system: OVCAR-5 ovarian
[8] = test system: IGROV1 ovarian
[9] = test system: NCI/ADR-RES ovarian
[10] = test system: CCRF-CEM leukemia
[11] = test system: CAKI-1 renal
[12] = test system: EKVX NSCLC
[13] = test system: A498 renal
[14] = test system: MCF7 breast
[15] = test system: SK-MEL-5 melanoma
[16] = test system: T-47D breast
[17] = test system: U251 glioblastoma
[18] = test system: UACC-62 melanoma
[19] = test system: NCI-H460 NSCLC
[20] = test system: HCC-2998 colon
[21] = test system: TK-10 renal
[22] = test system: NCI-H322M lung
[23] = test system: HT29 colon
[24] = test system: SR leukemia
[25] = test system: MDA-MB-435 melanoma
[26] = test system: SF-268 CNS
[27] = test system: 786-0 renal
[28] = test system: MDA-MB-231 breast
[29] = test system: BT-549 breast

Compound: CC(C)[C@H](O)C(=O)N[C@@H](C)C(=O)N[C@@H]1C(=O)N(C)CCc2ccccc21
- GI50 [1]: > 100 µM
- TGI [1]: > 100 µM
- GI50 [2]: > 100 µM
- TGI [2]: > 100 µM
- GI50 [3]: > 100 µM
- TGI [3]: > 100 µM
- GI50 [4]: > 100 µM
- TGI [4]: > 100 µM
- GI50 [5]: > 100 µM
- TGI [5]: > 100 µM
- GI50 [6]: > 100 µM
- TGI [6]: > 100 µM
- GI50 [7]: > 100 µM
- TGI [7]: > 100 µM
- GI50 [8]: > 100 µM
- TGI [8]: > 100 µM
- GI50 [9]: > 100 µM
- TGI [9]: > 100 µM
- GI50 [10]: > 100 µM
- TGI [10]: > 100 µM
- GI50 [11]: > 100 µM
- TGI [11]: > 100 µM
- GI50 [12]: > 100 µM
- TGI [12]: > 100 µM
- GI50 [13]: > 100 µM
- TGI [13]: > 100 µM
- GI50 [14]: > 100 µM
- TGI [14]: > 100 µM
- GI50 [15]: > 100 µM
- TGI [15]: > 100 µM
- GI50 [16]: > 100 µM
- TGI [16]: > 100 µM
- GI50 [17]: > 100 µM
- TGI [17]: > 100 µM
- GI50 [18]: > 100 µM
- TGI [18]: > 100 µM
- GI50 [19]: > 100 µM
- TGI [19]: > 100 µM
- GI50 [20]: > 100 µM
- TGI [20]: > 100 µM
- GI50 [21]: > 100 µM
- TGI [21]: > 100 µM
- GI50 [22]: > 100 µM
- TGI [22]: > 100 µM
- GI50 [23]: > 100 µM
- TGI [23]: > 100 µM
- GI50 [24]: > 100 µM
- TGI [24]: > 100 µM
- GI50 [25]: > 100 µM
- TGI [25]: > 100 µM
- GI50 [26]: > 100 µM
- TGI [26]: > 100 µM
- GI50 [27]: > 100 µM
- TGI [27]: > 100 µM
- GI50 [28]: > 100 µM
- TGI [28]: > 100 µM
- GI50 [29]: > 100 µM
- TGI [29]: > 100 µM
